ChEMBL document CHEMBL5241104, “Reactive metabolites of the anticonvulsant drugs and approaches to minimize the adverse drug reaction” (Eur J Med Chem, 2021)

Key:
Mus musculus [1] = assay: Anticonvulsant activity in mouse assessed as protection against maximal electroshock induced seizure at ip administration for 5 mins; format: functional
[2] = Toxicity in Swiss albino mouse assessed as median toxicity dose at ip administration; format: organism-based; conditions: in vivo
Rattus norvegicus [3] = assay: Anticonvulsant activity in Wistar rat assessed as protection against maximal electroshock induced seizure at po administration for 60 mins; format: functional; conditions: 1 h
Rattus norvegicus [4] = assay: Anticonvulsant activity against maximal electroshock induced seizure in Wistar rat assessed as reduction of time spent in extension phase at 50 mg/kg,po administration; format: functional
Mus musculus [5] = assay: Anticonvulsant activity in Swiss albino mouse assessed as protection against maximal electroshock induced seizure at ip administration; format: functional
Mus musculus [6] = assay: Anticonvulsant activity in Swiss albino mouse brain assessed as increase in GABA level at 30 mg/kg,ip measured after 2 hrs of post-administration by spectrophotometric method; format: functional
Mus musculus [7] = assay: Anticonvulsant activity in Swiss albino mouse assessed as protection against Sc-PTZ induced seizure at ip administration; format: functional
Mus musculus [8] = assay: Anticonvulsant activity in Swiss albino mouse brain assessed as increase in GABA level at 30 mg/kg,ip measured after 7 days of post-administration by spectrophotometric method; format: functional; conditions: time 7 day
Mus musculus [9] = assay: Anticonvulsant activity in Swiss albino mouse assessed as inhibition of maximal electroshock induced seizure at ip administration; format: functional
[10] = Toxicity in CF-1 mouse assessed as median toxic dose at ip administrated upto 4 hrs; format: organism-based; conditions: in vivo
[11] = Protective index, ratio of TD50 for toxicity in CF-1 mouse assessed as median toxicity dose at ip administration upto 4 hrs by rotorod test to ED50 for anticonvulsant activity in CF-1 mouse assessed as protection against maximal electroshock induced seizure at ip administration upto 4 hrs; format: organism-based; conditions: in vivo, read-out: Ratio TD50/ED50
Mus musculus [12] = assay: Anticonvulsant activity in Albino mouse brain assessed as increase in GABA level at 30 to 300 mg/kg,ip by spectrophotometric method; format: functional; conditions: dose 30-300 mg/kg
[13] = Protective index, ratio of TD50 for toxicity in Albino mouse assessed as median neurotoxicity dose at ip administration by rotorod test to ED50 for anticonvulsant activity in Albino mouse assessed as protection against Sc-PTZ induced seizure at ip administration; format: organism-based; conditions: in vivo, read-out: Ratio TD50/ED50
Mus musculus [14] = assay: Anticonvulsant activity in Albino mouse assessed as protection against maximal electroshock induced seizure at ip administration; format: functional
[15] = Protective index, ratio of TD50 for toxicity in Albino mouse assessed as median neurotoxicity dose at ip administration by rotorod test to ED50 for anticonvulsant activity in Albino mouse assessed as protection against maximal electroshock induced seizure at ip administration; format: organism-based; conditions: in vivo, read-out: Ratio TD50/ED50
Mus musculus [16] = assay: Anticonvulsant activity in Albino mouse assessed as protection against Sc-PTZ induced seizure at ip administration; format: functional
Mus musculus [17] = assay: Anticonvulsant activity in Swiss mouse assessed as protection against Sc-PTZ induced seizure at ip administration; format: functional
Rattus norvegicus [18] = assay: Anticonvulsant activity against maximal electroshock induced seizure in Wistar albino rat assessed as reduction of time spent in clonus phase at 10 mg/kg,ip administrated for 30 mins by electroconvulsive therapy; format: functional; set-up: scale not given: the % may be the effect or the level left; conditions: 0.5 h
Rattus norvegicus [19] = assay: Anticonvulsant activity against maximal electroshock induced seizure in Wistar albino rat assessed as reduction of time spent in stupor phase at 10 mg/kg,ip administrated for 30 mins by electroconvulsive therapy; format: functional; set-up: scale not given: the % may be the effect or the level left; conditions: 0.5 h
Rattus norvegicus [20] = assay: Anticonvulsant activity against maximal electroshock induced seizure in Wistar albino rat assessed as reduction of time spent in flexion phase at 10 mg/kg,ip administrated for 30 mins by electroconvulsive therapy; format: functional; set-up: scale not given: the % may be the effect or the level left; conditions: 0.5 h
Rattus norvegicus [21] = assay: Anticonvulsant activity against maximal electroshock induced seizure in Wistar albino rat assessed as reduction of time spent in extension phase at 10 mg/kg,ip administrated for 30 mins by electroconvulsive therapy; format: functional; set-up: scale not given: the % may be the effect or the level left; conditions: 0.5 h
Mus musculus [22] = assay: Anticonvulsant activity in Swiss albino mouse assessed as protection against Sc-PTZ induced seizure at po administration; format: functional
[23] = Toxicity in Swiss CD-1 mouse assessed as mortality at 100 mg/kg,ip; format: organism-based; conditions: in vivo
[24] = Protective index, ratio of TD50 for toxicity in Sc-PTZ induced Swiss albino mouse seizure model assessed as median neurotoxicity dose at po administration by rotorod test to ED50 for anticonvulsant activity in Swiss albino mouse assessed as protection against Sc-PTZ induced seizure at po administration; format: organism-based; conditions: in vivo, read-out: Ratio TD50/ED50
[25] = Toxicity in Swiss albino mouse assessed as lethality at 30 mg/kg,ip; format: organism-based; conditions: in vivo, read-out: Activity
Mus musculus [26] = assay: Anticonvulsant activity in Albino mouse assessed as protection against maximal electroshock induced seizure at ip administration for 30 mins; format: functional; conditions: 0.5 h
Rattus norvegicus [27] = organism: Rattus norvegicus; assay: Inhibition of sodium uptake in rat cerebral cortical synaptosomes at 30 uM incubated for 30 mins by scintillation counting analysis; format: functional; conditions: Cerebral cortex, Synaptosome
Rattus norvegicus [28] = assay: Anticonvulsant activity in Wistar rat assessed as protection against maximal electroshock induced seizure by measuring median effective dose at po administration; format: functional
Rattus norvegicus [29] = organism: Rattus norvegicus; assay: Inhibition of sodium uptake in rat cerebral cortical synaptosomes at 300 uM incubated for 30 mins by scintillation counting analysis; format: functional; conditions: Cerebral cortex, Synaptosome
[30] = Displacement of 3[H]BTX from rat cerebral cortical synaptosomes voltage-sensitive sodium channel incubated for 1.5 hrs by scintillation counting analysis; format: subcellular, Cerebral cortex, Synaptosome
Rattus norvegicus [31] = organism: Rattus norvegicus; assay: Inhibition of sodium uptake in rat cerebral cortical synaptosomes at 100 uM incubated for 30 mins by scintillation counting analysis; format: functional; conditions: Cerebral cortex, Synaptosome
Rattus norvegicus [32] = assay: Anticonvulsant activity in Wistar rat assessed as protection against maximal electroshock induced seizure at po administration; format: functional
[33] = Protective index, ratio of TD50 for toxicity in Wistar rat assessed as median toxicity dose at po administration by rotorod test to ED50 for anticonvulsant activity in Wistar rat assessed as protection against maximal electroshock induced seizure at po administration; format: organism-based; conditions: in vivo, read-out: Ratio TD50/ED50
Mus musculus [34] = assay: Anticonvulsant activity in mouse assessed as inhibition of maximal electroshock induced seizure at 200 mg/kg,po administration for 120 mins; format: functional; conditions: 2 h
Mus musculus [35] = assay: Anticonvulsant activity in CD-1 mouse assessed as protection against 6-Hz Psychomotor induced seizure at ip administration; format: functional

## CN1C(=O)CN=C(c2ccccc2)c2cc(Cl)ccc21 [DIAZEPAM]
Mus musculus [1]
  Activity: 87.5%

## CCCC(CCC)C(=O)N/N=C/c1cc(OC)ccc1OC
[2]
  TD50: 457 mg/kg

## COc1ccc(C2CC(c3ccc(Cl)cc3)=Nc3ccccc3N2)cc1 (stereo not given)
Rattus norvegicus [3]
  Activity: 52%
Rattus norvegicus [4]
  Time: 8.5 s

## COc1cc(C2CC(c3ccc(O)cc3)=NC(=S)N2C2=NC(=O)NNC2)ccc1O (stereo not given)
Mus musculus [5]
  ED50: 29.4 mg/kg
Mus musculus [6]
  Activity: 86.17 µg
Mus musculus [7]
  ED50: 293 mg/kg
[2]
  TD50: 412 mg/kg
Mus musculus [8]
  Activity: 91.47 µg

## CCOc1cc(/C=C2/N=C(c3ccccc3)c3cc([N+](=O)[O-])ccc3NC2=O)ccc1O
Mus musculus [9]
  inhibition (INH): 75%

## COC(=O)C1C(=O)C=C(Nc2cc(C)on2)CC1C (stereo not given)
[10]
  TD50 at 4 h: > 500 mg/kg
[11]
  selectivity ratio at 4 h: > 7.3

## CN(C)c1ccc(/C=N/Nc2nnc(-c3ccccc3)nc2Cc2ccc(Cl)cc2)cc1
Mus musculus [12]
  Activity: 37.3 mg
[13]
  selectivity ratio: 4.29
Mus musculus [14]
  ED50: 46 mg/kg
[15]
  selectivity ratio: 7.82
Mus musculus [16]
  ED50: 83.9 mg/kg

## O=C1NC(=O)C(c2ccccc2)(c2ccccc2)N1 [PHENYTOIN]
Mus musculus [17]
  ED50: > 300 mg/kg

## O=C1/C(=N\c2nnc(-c3cccc(Cl)c3Cl)c(/N=C3\C(=O)N(CN4CCOCC4)c4ccc(Cl)cc43)n2)c2cc(Cl)ccc2N1CN1CCOCC1
Rattus norvegicus [18]
  Activity: 40.55%
Rattus norvegicus [19]
  Activity: 34.16%
Rattus norvegicus [20]
  Activity: 30.39%
Rattus norvegicus [21]
  Activity: 48.95%

## CCC(=O)CCCCCN1C(=O)NC2(C1=O)c1ccccc1-c1ccccc12
Mus musculus [22]
  Activity: 100%

## COc1ccccc1N1CCN(CCCN2CCCC2=O)CC1
[23]
  mortality: 25%

## CN1C(=O)CC(=O)N(c2ccccc2)c2cc(Cl)ccc21 [CLOBAZAM]
Mus musculus [12]
  Activity: 54.9 mg

## COc1cc(/C=C2/N=C(c3ccccc3)c3cc([N+](=O)[O-])ccc3NC2=O)ccc1O
Mus musculus [9]
  inhibition (INH): 71%

## C=C(C)CC(CCC)C(=O)O (racemic)
[24]
  selectivity ratio: 2.05

## O=C1Nc2ccccc2C12Nc1ccccc1-c1nc(=O)c(-c3ccccc3)nn12 (stereo not given)
[25]
  mortality: 30%

## O=C1Nc2ccc(Cl)cc2C(c2ccccc2)=NC1/N=N/c1ccc(Cl)cc1 (stereo not given)
Mus musculus [26]
  Activity: 100%

## CCN(CC)CN1C(=O)/C(=N\c2nnc(-c3cccc(Cl)c3Cl)c(/N=C3\C(=O)N(CN(CC)CC)c4ccc(Cl)cc43)n2)c2cc(Cl)ccc21
Rattus norvegicus [18]
  Activity: 39.4%
Rattus norvegicus [19]
  Activity: 30.21%
Rattus norvegicus [20]
  Activity: 29.31%
Rattus norvegicus [21]
  Activity: 47.87%

## CC(=O)O[C@H]1Cc2ccccc2N(C(N)=O)c2ccccc21 [ESLICARBAZEPINE ACETATE]
Rattus norvegicus [27]
  inhibition: 52.6%
Rattus norvegicus [28]
  ED50: 4.7 mg/kg
Rattus norvegicus [29]
  inhibition: 95.6%
[30]
  IC50: 113 µM
Rattus norvegicus [31]
  inhibition: 73.4%
Rattus norvegicus [32]
  Activity: 100%
[33]
  selectivity ratio: 76.3

## O=C1Nc2ccc(Br)cc2C12Nc1ccccc1-c1nc(=O)c(-c3ccccc3)nn12 (stereo not given)
[25]
  mortality: 30%

## COc1ccc(/C=C2/N=C(c3ccccc3)c3cc([N+](=O)[O-])ccc3NC2=O)cc1O
Mus musculus [9]
  inhibition (INH): 70%

## CC1(C)O[C@@H]2O[C@@]3(COS(N)(=O)=O)OC(C)(C)OC3[C@@H]2O1 (stereo not given in full)
Mus musculus [34]
  inhibition in vivo at 200 mg/kg: ≥ 80%

## CCC1(C)CC(=O)NC1=O (stereo not given) [ETHOSUXIMIDE]
Mus musculus [35]
  ED50: 222 mg/kg

## CCCC(CCC)C(=O)N/N=C/c1ccncc1
[2]
  TD50: 346 mg/kg
